PMC6422423, “Constitutively active BRS3 is a genuinely orphan GPCR in placental mammals” (PLoS Biology, 2019)

Assays:
turtle BRS3 (tBRS3) [1] = test: ERK1/2 phosphorylation (WT and mutants); type: cell-based, Chrysemys picta
Method: (§1) For ERK1/2 phosphorylation, HEK293 cells were seeded in 24-well plates and transfected with GRPR, NMBR, BRS3, mutants of different species’ BRS3, or an empty vector plasmid, pcDNA3.1-V5-His plasmid (300 ng). […] Each sample with an equal amount of protein was mixed with 6×SDS sample buffer, boiled for 5 min, and separated on 10% SDS-polyacrylamide gel electrophoresis (PAGE) before transferring the proteins onto a PVDF membrane. The membranes were then blocked at room temperature for 1 h with 5% milk powder in Tris-buffered saline-Tween (TBST), followed by subsequent incubation at 4°C overnight in TBST containing the different primary antibodies (1:1,000 dilution). After washing three times (10 min each time) with TBST, the membranes were incubated for 1 h in TBST containing the secondary antibodies (1:2,000 dilution), followed by washing three times (10 min each time) with TBST, prior to detection by chemiluminescence.

[2] = test system: BRS3 receptors in nonplacental vertebrates; test: Intracellular calcium assay, nonplacental pooled; type: cell-based, koala, platypus, chicken, turtle, frog, and spotted gar; details: 10 nM peptide, HEK293
Method: (§2) Intracellular calcium was measured using the non-wash calcium assay Fluo8 kit (ab112129, Abcam) according to the manufacturer’s instructions. Briefly, HEK293 cells were seeded in 24-well plates and were transfected with GRPR, NMBR, BRS3, or the empty vector plasmid pcDNA3.1-V5-His (300 ng) and incubated overnight at 37°C with 5% CO2. The next day, the cells were replated into a 96-well assay plate (black plate and clear bottom). After 12 h, growth media were aspirated, and calcium dye was added. […] The basal fluorescence intensity was recorded 15 times at 1 Hz for […]. The results were normalized to the average basal fluorescence intensity in ratio, and the peak response was used for the result calculation. Calcium fold was calculated using no stimulation data as standard value.

spotted gar BRS3 (sBRS3) [3] = test: Intracellular calcium assay (WT and mutants); type: cell-based, Lepisosteus oculatus; details: for Calcium fold: 10 nM peptide, HEK293, Fluo8, sBRS3; for Intracellular Ca2+, mutants (in words): sBRS3 Q127R, P205S, and R294H
Method: as §2

human BRS3 (hBRS3) [4] = test: Intracellular calcium assay (WT and mutants); type: cell-based; details: 10 nM peptide; for Calcium fold: HEK293, Fluo8, hBRS3; for Intracellular Ca2+, mutants vs wild type (in words): hBRS3 R127Q, S205P, and H294R, each
Method: as §2

mouse BRS3 (mBRS3) [5] = test: Intracellular calcium assay (WT and mutants); type: cell-based; details: for Calcium fold: 10 nM peptide, HEK293, Fluo8, mBRS3; for Intracellular Ca2+, mutants (in words): mBRS3 R127Q, S205P, and H294R, all three
Method: as §2

[6] = biological target: placental mammalian BRS3 (hBRS3, mBRS3, and aBRS3); test: Radioligand binding, placental mammals pooled; set-up: species or system human, mouse, aardvark; details: for Ki: BRS3s in placental mammals; for Direct binding (in words): hBRS3, mBRS3, aBRS3, transfected HEK293 cells
Method: (§3) HEK293 cells were seeded in a 10-cm tissue culture dish at a density of 10^6 cells per dish and grown overnight at 37°C in growth medium. The following morning, 5 μg of different species’ BRS3 plasmids were transfected. After 6 h, the medium was replaced with growth medium. Cells were maintained at 37°C in a 5% CO2 atmosphere and used 48 h later for binding assays. The positive control group included transfected GRPR and NMBR; the test group consisted of transfected BRS3 from different species. Then, [^125I]-Tyr^42-GRP and [^125I]-Tyr-NMB were used as the ligands to assess affinity to the various receptors. […] The cell concentration was adjusted to between 0.05 and 4 × 10^6 cells/ml for each receptor such that less than 20% of the total added radioactive ligand was bound during the incubation, and the results were compared to cells transfected with GRPR or NMBR adjusted in concentration to bind a similar amount of ligand. After the incubation, 100 μl aliquots were added to 1.5-ml microfuge tubes, which contained 100 μl of binding buffer to determine the total radioactivity. The bound tracer was separated from unbound tracer by pelleting the cells through the binding buffer by centrifugation at 10,000g in a Microfuge E (Beckman) for 3 min. The supernatant was aspirated, and the pelleted cells were rinsed twice with a washing buffer that contained 1% (w/v) BSA in PBS. The amount of radioactivity bound to the cells was measured in a Cobra II Gamma counter (Packard Instruments). Binding was expressed as the percentage of total radioactivity that was associated with the cell pellet. All binding values represented saturable binding; nonsaturable binding was <15% of the total binding in all experiments. Each point was measured in duplicate, and each experiment was replicated at least four times. […] All the experiment data were calculated using 1 pM ligand-treated as 100% control.

aardvark BRS3 (aBRS3) [7] = test: Intracellular calcium assay (WT and mutants); type: cell-based, Orycteropus afer; details: for Calcium fold: 10 nM peptide, HEK293, Fluo8, aBRS3; for Intracellular Ca2+, mutants (in words): aBRS3 R127Q, S205P, and H294R, all three
Method: as §2

[8] = test system: BRS3 receptors in placental mammals; test: ERK1/2 phosphorylation, placental pooled; type: cell-based, human, mouse, dog, and aardvark; details: 1,000 nM peptide, 0/2/5 min, HEK293
Method: as §1

[9] = test system: BRS3 receptors in nonplacental vertebrates; test: ERK1/2 phosphorylation, nonplacental pooled; type: cell-based, koala, platypus, chicken, turtle, frog, and spotted gar; details: 1,000 nM peptide, 0/2/5 min, HEK293
Method: as §1

aardvark BRS3 (aBRS3) [10] = test: ERK1/2 phosphorylation (WT and mutants); type: cell-based, Orycteropus afer; details: aBRS3 R127Q, S205P, and H294R, all three
Method: as §1

spotted gar BRS3 (sBRS3) [11] = test: Radioligand binding (competition); set-up: species or system Lepisosteus oculatus; details: transfected HEK293 cells, 1 h 21°C, pH 7.4, mean ± SE, at least three experiments
Method: as §3

human BRS3 (hBRS3) [12] = test: ERK1/2 phosphorylation (WT and mutants); type: cell-based
Method: as §1

mouse BRS3 (mBRS3) [13] = test: ERK1/2 phosphorylation (WT and mutants); type: cell-based; details: mBRS3 R127Q, S205P, and H294R, all three
Method: as §1

turtle BRS3 (tBRS3) [14] = test: Radioligand binding (competition); set-up: species or system Chrysemys picta; details: transfected HEK293 cells, 1 h 21°C, pH 7.4, mean ± SE, at least three experiments
Method: as §3

| Substance | ERK phosphorylation, mutant (in words) (turtle BRS3 (tBRS3) [1]; tBRS3 P205S) | ERK phosphorylation, mutant (in words) (turtle BRS3 (tBRS3) [1]; tBRS3 Q127R) | ERK phosphorylation, mutant (in words) (turtle BRS3 (tBRS3) [1]; tBRS3 R294H) | Intracellular Ca2+ (in words) [2] | Intracellular Ca2+, mutants (in words) (spotted gar BRS3 (sBRS3) [3]) | Intracellular Ca2+, mutants vs wild type (in words) (human BRS3 (hBRS3) [4]) | Intracellular Ca2+, mutants (in words) (mouse BRS3 (mBRS3) [5]) | Ki [6] | Direct binding (in words) [6] | Intracellular Ca2+, mutants (in words) (aardvark BRS3 (aBRS3) [7]) | ERK phosphorylation (in words) [8] | ERK phosphorylation (in words) [9] | ERK phosphorylation, mutants (in words) (aardvark BRS3 (aBRS3) [10]) | IC50 (spotted gar BRS3 (sBRS3) [11]; 50 pM [125I]-Tyr42-GRP) | IC50 (spotted gar BRS3 (sBRS3) [11]; 50 pM [125I]-Tyr-NMB) | ERK phosphorylation, mutant (in words) (human BRS3 (hBRS3) [12]; hBRS3 H294R) | ERK phosphorylation, mutant (in words) (human BRS3 (hBRS3) [12]; hBRS3 R127Q) | ERK phosphorylation, mutant (in words) (human BRS3 (hBRS3) [12]; hBRS3 S205P) | ERK phosphorylation, mutants (in words) (mouse BRS3 (mBRS3) [13]) | IC50 (turtle BRS3 (tBRS3) [14]; 50 pM [125I]-Tyr42-GRP) | also measured |
| --- | --- | --- | --- | --- | --- | --- | --- | --- | --- | --- | --- | --- | --- | --- | --- | --- | --- | --- | --- | --- | --- |
| GSHWAVGHLM-NH2 [GRP, gastrin-releasing peptide] | the effect is not obvious | almost could not be detected | almost could not be detected | remarkable increase of Ca^2+ ions in cells | significant effects | remarkable increase of cellular Ca^2+ ions | significant increase in cellular Ca^2+ ions levels | > 1000 nM | no binding was detected | significant increase in cellular Ca^2+ ions levels | could not be activated | increase in the levels of phosphorylated ERK | lead to ERK phosphorylation signal | 0.17 nM | 0.54 nM | could be detected | could be detected | the effect is not obvious | lead to ERK phosphorylation signal | 0.14 nM | Calcium fold (spotted gar BRS3 (sBRS3) [3]; replicate 1): 4.5257 fold; Calcium fold (spotted gar BRS3 (sBRS3) [3]; replicate 2): 4.9378 fold; Calcium fold (spotted gar BRS3 (sBRS3) [3]; replicate 3): 5.3682 fold; Calcium fold (human BRS3 (hBRS3) [4]; replicate 1): 1.1274 fold; Calcium fold (human BRS3 (hBRS3) [4]; replicate 2): 1.2515 fold; Calcium fold (human BRS3 (hBRS3) [4]; replicate 3): 1.1684 fold; Calcium fold (mouse BRS3 (mBRS3) [5]; replicate 1): 1.0113 fold; Calcium fold (mouse BRS3 (mBRS3) [5]; replicate 2): 1.0374 fold; Calcium fold (mouse BRS3 (mBRS3) [5]; replicate 3): 1.111 fold; Calcium fold (aardvark BRS3 (aBRS3) [7]; replicate 1): 1.0918 fold; Calcium fold (aardvark BRS3 (aBRS3) [7]; replicate 2): 1.1902 fold; Calcium fold (aardvark BRS3 (aBRS3) [7]; replicate 3): 1.2372 fold; IC50 (turtle BRS3 (tBRS3) [14]; 50 pM [125I]-Tyr-NMB): 0.28 nM |
| neuromedin B [NMB] | the effect is not obvious | almost could not be detected | almost could not be detected | remarkable increase of Ca^2+ ions in cells | significant effects | remarkable increase of cellular Ca^2+ ions | significant increase in cellular Ca^2+ ions levels | > 1000 nM | no binding | significant increase in cellular Ca^2+ ions levels | could not be activated | increase in the levels of phosphorylated ERK | lead to ERK phosphorylation signal | 1.74 nM | 2.65 nM | could be detected | could be detected | the effect is not obvious | lead to ERK phosphorylation signal | 1.14 nM | IC50 (turtle BRS3 (tBRS3) [14]; 50 pM [125I]-Tyr-NMB): 2.82 nM |
